Some test systems named below: LOX IMVI melanoma; DU-145 prostate; SF-539 CNS; NCI/ADR-RES ovarian; COLO 205 colon; NCI-H460 lung; SR leukemia; NCI-H23 lung.
Common to all, as to assay: NCI-60 cell line screen, 48 h

Here are results for ten molecules from PubChem BioAssay (NCI).

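Grown in 96-well plates, cells were treated for 48 hours with each compound at five concentrations. Insufficient inhibition: endpoint recorded as highest concentration tested. At the GI50, growth is halved. TGI: concentration producing complete growth inhibition.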

For `O=C1C(Cl)=C(Nc2cccc(Cl)c2)C(=O)N1Cc1ccc(Cl)cc1`, the GI50 is 0.408 µM with LOX IMVI melanoma; 2.72 µM in the assay with DU-145 prostate; 0.196 µM in the assay on SF-539 CNS; 0.298 µM in the assay with NCI/ADR-RES ovarian; 1.46 µM in the assay with COLO 205 colon; 0.538 µM with NCI-H460 lung. Moreover, the GI50 in the assay with SR leukemia was 0.215 µM; with NCI-H23 lung, 0.378 µM. Besides, the TGI in the assay on LOX IMVI melanoma was 8.49 µM; in the assay on DU-145 prostate, 11.4 µM; in the assay on SF-539 CNS it was 2.37 µM; in the assay with NCI/ADR-RES ovarian, 3.28 µM; with COLO 205 colon, 18.2 µM; with NCI-H460 lung it was 15.7 µM. The molecule also registered a TGI with NCI-H23 lung of 2.12 µM.

`CC(C)Cn1cnc2c(SCc3ccc(Cl)cc3Cl)nc(N)nc21`: the TGI in the assay on LOX IMVI melanoma is 38.3 µM; with DU-145 prostate, more than 100 µM; with SF-539 CNS, 36.5 µM; with NCI/ADR-RES ovarian, more than 100 µM; in the assay on COLO 205 colon, 24.6 µM; in the assay with NCI-H460 lung, 35.4 µM. For the same molecule, the figures for the TGI in the assay with SR leukemia and with NCI-H23 lung were 25.8 µM and more than 100 µM, respectively.

`COc1ccc2[nH]cc(-c3ccc(-c4c[nH]c5ccc(OC)cc45)s3)c2c1`: the GI50 with LOX IMVI melanoma is 2.2 µM; in the assay on DU-145 prostate it was 4.87 µM; with SF-539 CNS it was 3.41 µM; in the assay with NCI/ADR-RES ovarian, 3.78 µM; with COLO 205 colon, 4.68 µM; with NCI-H460 lung, 2.88 µM. Besides, in the assay with NCI-H23 lung, the GI50 is 6.36 µM. Moreover, the TGI was found to be 5 µM in the assay on LOX IMVI melanoma; 18.4 µM with DU-145 prostate; 10.7 µM in the assay with SF-539 CNS; 19.5 µM in the assay with NCI/ADR-RES ovarian; 11.5 µM with COLO 205 colon; 9.32 µM in the assay on NCI-H460 lung. This molecule also gave a TGI with NCI-H23 lung of 26.2 µM.

As to `C[C@H](NC(=O)[C@@H](C)N)[C@H](Oc1ccc2c(cnn2-c2ccc(F)cc2)c1)c1ccc2c(c1)OCCO2`, the GI50 is 1.78 µM in the assay on LOX IMVI melanoma; 2.02 µM in the assay with DU-145 prostate; 1.65 µM in the assay with SF-539 CNS; 2.69 µM in the assay with NCI/ADR-RES ovarian; 1.83 µM in the assay with COLO 205 colon; 1.56 µM with NCI-H460 lung. Moreover, the GI50 in the assay on SR leukemia is 2.03 µM; with NCI-H23 lung it was 3.93 µM. Also, the TGI in the assay on LOX IMVI melanoma is 3.41 µM; in the assay on DU-145 prostate it was 5.01 µM; in the assay with SF-539 CNS, 3.54 µM; with NCI/ADR-RES ovarian, 13.5 µM; in the assay with COLO 205 colon, 3.61 µM; in the assay with NCI-H460 lung, 3.15 µM. In addition, the TGI in the assay with SR leukemia was 5.24 µM; in the assay with NCI-H23 lung, 15.6 µM.

`C[C@]12C[C@H](CCCCCCNCCOC(=O)NCCCc3ccc(N(CCCl)CCCl)cc3)C3=C4CCC(=O)C=C4CCC3C1CC[C@@H]2O` (stereo not given in full): the GI50 is 1.06 µM in the assay with LOX IMVI melanoma; 0.454 µM in the assay on DU-145 prostate; 1.4 µM in the assay with SF-539 CNS; 14 µM in the assay on NCI/ADR-RES ovarian; 1.45 µM in the assay with COLO 205 colon; 0.672 µM in the assay on NCI-H460 lung. Further, in the assay on NCI-H23 lung, the GI50 was 1.54 µM. Moreover, the TGI in the assay on LOX IMVI melanoma is 2.27 µM; in the assay on DU-145 prostate, 1.93 µM; with SF-539 CNS, 3.33 µM; with NCI/ADR-RES ovarian it was 36.2 µM; in the assay on COLO 205 colon, 3.9 µM; in the assay on NCI-H460 lung, 4.08 µM. Besides, in the assay on NCI-H23 lung, the TGI came to 3.01 µM.

As for `CCOC(=O)/C(C=Nc1ccc(-c2nc3ccccc3[nH]2)cc1)=C(/C)O`, the GI50 in the assay on LOX IMVI melanoma was 9.13 µM; in the assay with DU-145 prostate it was 10.1 µM; with NCI/ADR-RES ovarian, 13 µM; with COLO 205 colon it was 10.7 µM; in the assay with NCI-H460 lung, 12.1 µM; in the assay on NCI-H23 lung it was 15 µM. The TGI is 16.5 µM with LOX IMVI melanoma; 33.3 µM in the assay on DU-145 prostate; 32.2 µM with NCI/ADR-RES ovarian; 33.4 µM with COLO 205 colon; more than 50 µM in the assay on NCI-H460 lung; 31 µM in the assay with NCI-H23 lung.

For the molecule `CCOC(=O)N1CCN(/[N+]([O-])=N/Oc2ccc([N+](=O)[O-])cc2[N+](=O)[O-])CC1`, the GI50 was 0.258 µM in the assay with LOX IMVI melanoma; 4.73 µM in the assay with DU-145 prostate; 0.424 µM with SF-539 CNS; 3.88 µM in the assay on NCI/ADR-RES ovarian; 0.349 µM in the assay with COLO 205 colon; 4.41 µM in the assay with NCI-H460 lung. Also, the GI50 in the assay with NCI-H23 lung was 1.82 µM. Further, the TGI in the assay on LOX IMVI melanoma was more than 100 µM; in the assay with DU-145 prostate it was 19.2 µM; in the assay with SF-539 CNS it was 20.9 µM; with NCI/ADR-RES ovarian, 14.9 µM; in the assay on COLO 205 colon it was 14.4 µM; with NCI-H460 lung, 18 µM. For the same molecule, in the assay on NCI-H23 lung, the TGI stood at 3.69 µM.

Consider `COc1ccc(C(=S)N2CCN(c3cccc(C)c3)CC2)cc1OC`, for which the GI50 in the assay on LOX IMVI melanoma was 5.46 µM; in the assay on DU-145 prostate it was 4.59 µM; in the assay on SF-539 CNS, 5.1 µM; with COLO 205 colon it was 3.88 µM; in the assay on NCI-H460 lung, 3.38 µM; with SR leukemia, 1.53 µM. In addition, the GI50 with NCI-H23 lung is 9.08 µM. Besides, the TGI with LOX IMVI melanoma, in the assay on DU-145 prostate, in the assay with SF-539 CNS, in the assay on COLO 205 colon, in the assay with NCI-H460 lung and with SR leukemia was more than 100 µM throughout. The molecule also came in with a TGI in the assay on NCI-H23 lung of more than 100 µM.

`C=CCN=c1sc2c(n1NC(=O)c1cc3ccc1CCc1ccc(cc1)CC3)C(=O)c1ccccc1C2=O`: the GI50 is 0.532 µM with LOX IMVI melanoma; 1.85 µM in the assay on DU-145 prostate; 1.69 µM in the assay with SF-539 CNS; 1.94 µM in the assay with COLO 205 colon; 1.94 µM with NCI-H460 lung; 1.78 µM in the assay on SR leukemia. The GI50 with NCI-H23 lung is 1.46 µM. Moreover, the TGI is 2.1 µM with LOX IMVI melanoma; 3.45 µM in the assay with DU-145 prostate; 3.12 µM in the assay with SF-539 CNS; 4.24 µM in the assay on COLO 205 colon; 3.97 µM in the assay on NCI-H460 lung; more than 100 µM with SR leukemia. Further, in the assay on NCI-H23 lung, the TGI was 3.76 µM.

With `CC(=O)NC1C(OC[C@@H](CC(=O)N[C@@H](CC(=O)O)CC(=O)N[C@H](CC(=O)N[C@@H](CCCN)CC(=O)N[C@@H](CCCN)CC(=O)N[C@H](CC(N)=O)C(C)C)C(C)C)NC(=O)C[C@@H](N)C(C)C)OC(CO)C(O)C1O` (stereo not given in full), the GI50 in the assay on LOX IMVI melanoma, in the assay on DU-145 prostate, in the assay on SF-539 CNS, in the assay on NCI/ADR-RES ovarian, in the assay with COLO 205 colon and in the assay on NCI-H460 lung was more than 100 µM in each case. Moreover, in the assay with NCI-H23 lung, the GI50 was more than 100 µM. The TGI with LOX IMVI melanoma, with DU-145 prostate, in the assay on SF-539 CNS, in the assay with NCI/ADR-RES ovarian, in the assay with COLO 205 colon and in the assay with NCI-H460 lung was more than 100 µM in each case. The molecule also displayed a TGI with NCI-H23 lung of more than 100 µM.
